Results: ChEMBL document CHEMBL1132809, “Synthesis and evaluation of 4-deacetoxyagosterol A as an MDR-modulator” (2000)

What was measured:
[1] = tested on: KB 3-1; experiment: Cytotoxicity was evaluated against KB CV-60 cells at 0.1 ug/mL; No cytotoxicity; type: functional, cell-based; conditions: Homo sapiens
[2] = tested on: KB 3-1; experiment: Cytotoxicity was evaluated against KB-C2 cells at 0.1 ug/mL; No cytotoxicity; type: functional, cell-based; conditions: Homo sapiens
[3] = tested on: KB 3-1; experiment: Cytotoxicity was evaluated against KB-3-1 cells at 3 ug/mL; type: functional; conditions: Homo sapiens
[4] = tested on: KB-CV60; experiment: The compound was evaluated to Inhibit the growth of KB CV-60 cells at 10 ug/mL in the presence of vincristine (0.1 ug/ML)
[5] = tested on: KB-C2; experiment: The compound was evaluated to Inhibit the growth of KB-C2 cells at 1 ug/mL n the presence of colchicine (0.1 ug/ML)
[6] = tested on: KB-CV60; experiment: The compound was evaluated to Inhibit the growth of KB CV-60 cells at 3 ug/mL in the presence of vincristine (0.1 ug/ML)
[7] = tested on: KB-CV60; experiment: The compound was evaluated to Inhibit the growth of KB CV-60 cells at 1 ug/mL in the presence of vincristine (0.1 ug/ML)
[8] = tested on: KB-C2; experiment: The compound was evaluated to Inhibit the growth of KB-C2 cells at 10 ug/mL in the presence of colchicine (0.1 ug/ML)
[9] = tested on: KB 3-1; experiment: Cytotoxicity was evaluated against KB-3-1 cells at 10 ug/mL; type: functional; conditions: Homo sapiens
[10] = tested on: KB-C2; experiment: The compound was evaluated to Inhibit the growth of KB-C2 cells at 3 ug/mL n the presence of colchicine (0.1 ug/ML)

SMILES	Cytotoxicity [1]	Cytotoxicity [2]	inhibition at 3 µg/mL [3] [%]	Inhibition [4] [%]	Inhibition [5] [%]	Inhibition [6] [%]	Inhibition [7] [%]	Inhibition [8] [%]	inhibition at 10 µg/mL [9] [%]	Inhibition [10] [%]
CC[C@]1(O)C[C@H]2CN(CCc3c([nH]c4ccccc34)[C@@](C(=O)OC)(c3cc4c(cc3OC)N(C=O)[C@H]3[C@@](O)(C(=O)OC)[C@H](OC(C)=O)[C@]5(CC)C=CCN6CC[C@]43[C@@H]65)C2)C1	No cytotoxicity	No cytotoxicity	–	–	–	–	–	–	–	–
CC(=O)O[C@H]1CC[C@@]2(C)[C@H](C1)[C@@H](OC(C)=O)C=C1[C@@H]2[C@H](O)C[C@]2(C)[C@@H]([C@H](C)[C@H](O)CCC(C)C)CC[C@@H]12	–	–	13	69	44	64	59	87	19	76
CC(=O)O[C@@H]1[C@@H]2[C@@H](OC(C)=O)C=C3[C@H]([C@H](O)C[C@]4(C)[C@@H]([C@H](C)[C@H](O)CCC(C)C)CC[C@@H]34)[C@@]2(C)CC[C@@H]1OC(C)=O [AGOSTEROL A]	–	–	–	76	75	73	66	84	13	82
CC(=O)O[C@H]1CC[C@@]2(C)[C@H](C1)[C@@H](OC(C)=O)C=C1[C@@H]2[C@H](O)C[C@]2(C)[C@@H]([C@H](C)CCCC(C)C)CC[C@@H]12	–	–	5	42	37	25	15	88	39	69
COc1cc2c(c(OC)c1OC)-c1ccc(OC)c(=O)cc1[C@@H](NC(C)=O)CC2	No cytotoxicity	No cytotoxicity	–	–	–	–	–	–	–	–
